pIC50: −log10 of the molar value.

Among the data in PubChem BioAssay AID1117361 (Southern Research Institute, 2015) are IC50 values, retold here.

The target in the experiment is Protein Tat (Human immunodeficiency virus type 1 group M subtype B (isolate HXB2)) (UniProt P04608). Kind of experiment: HIV-1 Tat–TAR interaction blockers – biochemical, fluorescence polarization, FAM-labeled TAR RNA, counter-screen for Vif-APOBEC3G degradation inhibitor project, dose response (AID 1117361). As to conditions: Tat-TAR RNA binding. On the technique in general: Fluorescence polarisation rises when a labelled molecule tumbles more slowly, as on binding a larger partner.
Chain of Protein Tat (Human immunodeficiency virus type 1 group M subtype B (isolate HXB2)) (P04608 whole entry, looked up): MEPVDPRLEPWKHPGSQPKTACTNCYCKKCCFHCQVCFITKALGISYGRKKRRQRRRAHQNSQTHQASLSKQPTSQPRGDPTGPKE
Broadly, the pIC50 is −log10 of the IC50, conventionally taken in molar units. Consider `O=C(COC(=O)c1ccc(NS(=O)(=O)c2cccs2)cc1)NCc1ccco1`, for which the pIC50 was 4.79.

In the case of `O=S(=O)(O)c1cc(O)c2c(O)c(N=Nc3cc(Cl)ccc3O)c(S(=O)(=O)O)cc2c1`, the pIC50 was 4.80.

With `CCCCC1=CC2=C(c3ccco3)C(=O)C(C)(OC(=O)c3ccc(OC)cc3)C(=O)C2=CN1CCCCO` (stereo not given), the pIC50 is 4.53.

As to `CCOC(=O)c1cnn2c(N)c(C#N)nnc12`, the pIC50 was 4.34.

With `O=C1CC(c2ccco2)CC(O)=C1C=Nc1cc(Cl)ccc1Cl` (stereo not given), the negative logarithm of the IC50 (pIC50) was 5.14.

`CCc1c(C)sc(NC(=O)c2cc(-c3ccco3)on2)c1C#N`: the negative-log IC50 (pIC50) is 4.28.

With `COc1cccc(NS(=O)(=O)c2ccc3c(c2)C2C=CCC2C(c2ccc(C(=O)O)cc2)N3)c1` (stereo not given), the negative-log IC50 (pIC50) was 5.45.

With `CC(=O)c1ccc(NC(=O)c2ccc3nc(-c4ccco4)c(-c4ccco4)nc3c2)cc1`, the negative-log IC50 (pIC50) was 5.11.

With `Cc1ccc2c(c1C)NC(C(=O)O)C1CC=CC21` (stereo not given), the negative-log IC50 (pIC50) is 4.46.

In the case of `CC(=O)N1CCN(c2nc(-c3ccco3)c3c(c2C#N)CC(C)(C)SC3)CC1`, the negative-log IC50 (pIC50) is 4.23.

Consider `CCOC(=O)C1=C(N)n2c(s/c(=C/c3ccco3)c2=O)=C(C(=O)OC)C1c1ccco1` (stereo not given), for which the negative logarithm of the IC50 (pIC50) is 5.01.

For `COC/C=C/C1=CC2=CC(=O)C(C)(OC(=O)CCC(=O)OC)C(=O)C2=CO1` (stereo not given), the negative-log IC50 (pIC50) was 5.09.

For `COC/C=C/C1=CC2=CC(=O)C(C)(OC(=O)c3ccco3)C(=O)C2=CO1` (stereo not given), the pIC50 is 5.13.

With `Cc1[nH]c2c(Cl)cccc2c(=O)c1CN1CCCC1`, the pIC50 was 4.11.

In the case of `CN(C)C(CNC(=O)c1cccnc1Sc1ccccc1)c1ccco1` (stereo not given), the pIC50 is 4.16.

As for `O=C(O)c1ccc(-n2cccc2/C=N\NC(=O)c2cc3cc(Br)ccc3o2)cc1`, the pIC50 is 4.86.

Take `Cc1cc(C)c([N+](=O)[O-])cc1-c1ccc(/C=N/c2c(-c3ccco3)nc3ccccn23)o1`: the pIC50 was 4.24.

Regarding `Oc1ccc(N=Cc2ccc(OCc3ccccc3)cc2)cc1`, the negative logarithm of the IC50 (pIC50) was 4.32.

`Cc1ccc(NC(=O)CN(C)C(=O)c2cccc(-n3cccc3)c2)cc1`: the pIC50 is 4.42.

Consider `O=C(Cc1csc(N2CCOCC2)n1)N/N=C/c1ccc(O)c(O)c1O`, for which the pIC50 was 4.78.

Consider `C=C(C)C(=O)Nc1cccc(C2=NOC3(C2)C[C@@H](C(N)=O)N(C(=O)c2cc([N+](=O)[O-])cc([N+](=O)[O-])c2)C3)c1` (stereo not given in full), for which the negative logarithm of the IC50 (pIC50) is 4.28.

Consider `O=C(COc1ccccc1Cl)c1ccc[nH]1`, for which the pIC50 is 4.83.

In the case of `Clc1ccccc1N=Nc1ccccn1`, the negative-log IC50 (pIC50) is 4.46.

For the compound `Cc1ccc([C@@H]2C3COCC=C3C(C#N)=C(N)C2(C#N)C#N)o1` (stereo not given in full), the pIC50 is 5.39.

`CCN1C(=O)/C(=C\c2ccco2)C(C(=O)OC)=C1C`: the negative-log IC50 (pIC50) was 4.09.

For `O=C1CC(SC(=S)C2CCCC2=O)C(=O)N1` (stereo not given), the pIC50 is 5.49.

For the compound `O=CN/C=C/c1cc(O)ccc1O`, the pIC50 is 4.96.

For the compound `CCOC(=O)c1c(C)oc2c1c(C=NCc1ccccn1)c(O)c1ccccc12`, the pIC50 was 5.38.

As to `O=C(/C=C/c1ccco1)N(c1ccccn1)c1ccccn1`, the negative logarithm of the IC50 (pIC50) is 5.10.

Regarding `Cc1ccc(C)n1-c1cccc(C(=O)O)c1`, the pIC50 was 5.68.

Consider `CCN1CCN(c2cc(N3CCN(C(=O)c4ccco4)CC3)c3c4c(onc24)-c2ccccc2C3=O)CC1`, for which the pIC50 is 5.24.

Turning to `O=C(O)Cc1ccc(N=Nc2c(O)c(C(=O)O)cc3ccccc23)cc1`, the pIC50 was 4.56.

For the compound `O=C(CN1CCN(S(=O)(=O)c2ccc(Cl)cc2)CC1)Nc1ccc2c(c1)OCCO2`, the pIC50 is 5.88.

Regarding `O=[N+]([O-])c1ccc(Sc2nc3ccccc3o2)c([N+](=O)[O-])c1`, the pIC50 is 4.78.

For `Clc1ccc(-c2cn3cccnc3n2)cc1Cl`, the negative-log IC50 (pIC50) was 4.04.

In the case of `O=C(COC(=O)/C=C/c1ccco1)Nc1ncc(C(F)(F)F)cc1Cl`, the negative logarithm of the IC50 (pIC50) was 4.70.

In the case of `CN(C(=O)COC(=O)c1cc(-c2ccco2)nc2ccccc12)C1CCS(=O)(=O)C1` (stereo not given), the negative-log IC50 (pIC50) is 5.20.

Regarding `CC1=NN(c2cccc(C(=O)O)c2)C(=O)/C1=C\C=C\c1ccco1`, the pIC50 is 4.92.

With `O=C(Cc1ccccc1)NC(Nc1ccccc1)C(Cl)(Cl)Cl` (stereo not given), the pIC50 is 4.06.

With `O=C1CC(c2ccco2)CC(O)=C1C=Nc1cc(Cl)cc(Cl)c1` (stereo not given), the negative-log IC50 (pIC50) is 5.02.

Consider `CC1=C(C(=O)Nc2ccccc2)C(c2ccc(C)o2)n2c(s/c(=C\c3ccco3)c2=O)=N1` (stereo not given), for which the pIC50 was 5.23.

For `CCCC(=Nc1ccc(N)cc1)C1=C(O)C(C(=O)OC)C(C)(C)CC1=O` (stereo not given), the pIC50 was 5.16.

For `CCN(C(=O)c1coc(=O)c(Br)c1)c1ccc2c(c1)OCO2`, the negative logarithm of the IC50 (pIC50) is 5.93.

On to `CCc1c(C)sc(NC(=O)OC)c1C(=O)N1CCCCC1`, for which the pIC50 is 4.52.

For the compound `CCOc1cccc(=O)c2c(C)n(CC(=O)c3ccccc3)c(C)c12`, the negative-log IC50 (pIC50) is 4.73.

Consider `Cc1c(C(=O)O)cccc1-n1c(C)cc(/C=N/Nc2ccc([N+](=O)[O-])cn2)c1C`, for which the pIC50 was 4.19.

As to `Cc1ccc(C)n1-c1ccc(C(=O)O)cc1`, the pIC50 is 5.04.

Regarding `O=C1NC(=O)N(Cc2ccccc2)C(=O)/C1=C\C=C\c1ccco1`, the negative-log IC50 (pIC50) was 4.51.

Regarding `CCc1ccc(N2C(=O)NC(=O)/C(=C\C=C\c3ccco3)C2=O)cc1`, the pIC50 is 4.35.

For the compound `CN1C(=O)/C(=C/C=C/c2ccco2)C(=O)NC1=S`, the pIC50 was 4.95.

On to `CN1CCN(C2=C(Cl)C(=O)C(c3cnc(N4CCCCC4)s3)=C(Cl)C2=O)CC1`, for which the negative logarithm of the IC50 (pIC50) was 5.17.

Consider `N#Cc1c(N)sc(=S)c2c1CCCCC2`, for which the pIC50 was 5.73.

For `CCN(CC(=O)Nc1c(F)cccc1F)C(=O)CSC(=S)N1CCCC1`, the negative logarithm of the IC50 (pIC50) is 4.12.

Consider `O=C(O)/C(=C/c1ccco1)NC(=O)c1ccccc1`, for which the pIC50 is 4.81.

Take `Cc1ccccc1NC(=O)c1c(C)[nH]c(=S)c(C#N)c1-c1ccco1`: the negative-log IC50 (pIC50) is 5.05.

With `CC1(OC(=O)C2CCCC2)C(=O)C=C2C=C(c3ccsc3)OC=C2C1=O` (stereo not given), the pIC50 was 4.34.

As for `Cc1cc([N+](=O)[O-])cc2c1NC(c1ccccn1)C1CC=CC21` (stereo not given), the pIC50 is 4.31.

In the case of `CC(C)C(C(=O)O)N1C(=O)/C(=C/C=C/c2ccco2)SC1=S` (stereo not given), the pIC50 is 5.85.

As to `Cc1nc2cc(-c3ccsc3-n3c(C)ccc3C)[nH]n2c(=O)c1Cl`, the negative-log IC50 (pIC50) is 5.66.

Take `CCOc1cc(N2CCOCC2)c(OCC)cc1NS(=O)(=O)c1ccc(Cl)s1`: the pIC50 is 4.83.

With `C[n+]1cccc2cccc([O-])c21`, the pIC50 was 4.86.

Regarding `COC(=O)c1cnn2c(C(F)(F)F)cc(-c3ccco3)nc12`, the pIC50 is 4.17.

As to `O=C1NC(=S)N(c2ccccc2)C(=O)/C1=C/c1ccco1`, the pIC50 is 4.79.

For the compound `O=C(NC1CCC(C(=O)O)CC1)OCc1ccccc1` (stereo not given), the pIC50 is 4.10.

`CCOC1(OCC)N=C(N)C2(C#N)C(c3cccc(OC)c3OC)C12C#N` (stereo not given): the negative logarithm of the IC50 (pIC50) was 5.80.

In the case of `COc1ccc(N=C2NC(=O)/C(=C\C=C\c3ccco3)S2)cc1`, the negative-log IC50 (pIC50) is 5.20.

As to `Cn1nc(-c2ccc(Cl)cc2)c2cc(C(=O)N3CCN(c4ccccc4)CC3)sc21`, the negative-log IC50 (pIC50) was 4.90.

With `CNC(=O)c1ccccc1NC(=O)c1ccc(C)c(S(=O)(=O)N2CCCCC2)c1`, the pIC50 was 6.01.

Regarding `CN(C)S(=O)(=O)c1cccc(NC(=S)N/N=C/c2ccc(O)c(O)c2O)c1`, the pIC50 is 4.63.

Consider `COc1cc(CNc2ccc(O)cc2)cc(Br)c1OCc1ccccc1`, for which the pIC50 was 4.46.

Take `O=C(NCc1ccccn1)c1ccc2nc(-c3ccco3)c(-c3ccco3)nc2c1`: the pIC50 was 5.32.

For `Cc1cccc(NC2=Nc3ccccc3N3C2=Nc2c(c(C)nn2-c2ccccc2)C3c2ccc(O)c(O)c2)c1` (stereo not given), the negative logarithm of the IC50 (pIC50) is 4.37.

Regarding `CCCCn1c(O)c(C(CC)=NCCN2CCCCC2)c(=O)[nH]c1=O`, the negative logarithm of the IC50 (pIC50) was 4.49.

As to `CN(C)[C@@H]1C(=O)C(C(=O)NCN2CCCC2)=C(O)[C@@]2(O)C(=O)C3=C(O)c4c(O)cccc4[C@@](C)(O)C3CC12` (stereo not given in full), the pIC50 was 5.61.

For the compound `Oc1cccc(C=NCc2ccccc2)c1O`, the pIC50 was 5.19.

`CCC1S/C(=C(\C#N)C(=O)NCc2ccco2)N(c2ccc(F)cc2)C1=O` (stereo not given): the negative-log IC50 (pIC50) was 4.83.

With `O=C(O)CSc1c2c(nc3cc(C(=O)N4CCOCC4)ccc13)CCCC2`, the pIC50 was 4.91.

Consider `COCc1cc(C)nc(NCCO)c1C#N`, for which the pIC50 was 5.84.

As to `CCOC(=O)C1=C(N)n2c(s/c(=C\c3ccco3)c2=O)=C(C(=O)OCC)C1c1ccco1` (stereo not given), the pIC50 was 5.10.

For the compound `CNC[C@H](O)c1ccc(O)c(O)c1`, the pIC50 was 4.93.

For the compound `O=C1CC(c2ccco2)CC(O)=C1C=Nc1cc(Cl)ccc1O` (stereo not given), the negative-log IC50 (pIC50) was 4.69.

Consider `COc1ccc(O)c(N)c1`, for which the pIC50 is 5.26.

Turning to `CCCC(=O)N(CCc1ccc(OC)cc1)Cc1nc2ccccc2c(=O)[nH]1`, the negative logarithm of the IC50 (pIC50) is 4.14.

With `CC(C)CNC1=CC(=O)CC(c2ccco2)C1` (stereo not given), the pIC50 is 4.51.

Turning to `Cc1cc(C)nc(N2CCC(C(=O)O)CC2)n1`, the negative logarithm of the IC50 (pIC50) is 4.14.

Consider `CCOC(=O)C(=O)Cc1cccnn1`, for which the pIC50 was 4.31.

Turning to `Oc1ccc2c(c1)C1CCCC1(N1CCOCC1)O2` (stereo not given), the pIC50 was 4.64.

Take `CCOC(=O)c1sc2nc(CC(=O)OC)nc(NCc3ccco3)c2c1C`: the negative-log IC50 (pIC50) is 4.79.

For `CCOc1cccc(OCC)c2c(C)[n+](CC3CCCO3)c(C)c1-2` (stereo not given), the pIC50 was 5.38.

For the compound `c1cnc(N2CCN(c3cnccn3)CC2)nc1`, the pIC50 is 4.14.

In the case of `Cc1onc(-c2c(F)cccc2Cl)c1C(=O)Nc1nnc(C2CC2)s1`, the negative-log IC50 (pIC50) is 4.22.

Consider `Cc1cc(O)ccc1-c1cnc2ccccc2n1`, for which the pIC50 was 4.09.

As for `Cc1cc(-c2cc(-c3ccc(Cl)cc3)nc(N)c2C#N)co1`, the pIC50 was 4.08.

In the case of `O=C1CC(c2ccco2)CC(O)=C1C=Nc1ccc(Br)cc1` (stereo not given), the negative-log IC50 (pIC50) was 4.11.

On to `Cc1c(Br)c(O)c(Br)c2sc(=O)oc12`, for which the negative logarithm of the IC50 (pIC50) is 4.60.

Turning to `CN1CCc2cccc3c2[C@@H]1Cc1ccc(O)c(O)c1-3`, the pIC50 was 5.04.

With `CC(C)(C)NC(=O)C(c1ccncc1)N(C(=O)CNC(=O)c1ccco1)c1ccc2c(c1)OCO2` (stereo not given), the negative logarithm of the IC50 (pIC50) was 4.36.

For `S=c1[nH]nc(COc2ccc3c(c2)OCO3)n1-c1ccccc1`, the negative logarithm of the IC50 (pIC50) was 5.99.

For `CN1CCC(N(C)C(=O)COc2ccccc2-c2ccccc2)CC1`, the pIC50 was 4.20.

Regarding `COC(=O)c1ccc(=O)c2nc3/c(=C/O)c(O)cc(=O)c3[nH]c12`, the negative logarithm of the IC50 (pIC50) was 4.69.
